Source: patent publication US9596857B2, “Insecticidal and miticidal mixtures of bifenthrin and cyano-pyrethroids” (FMC Corporation, priority 2005, dated 2017)
Values joined by “and” are separate entries in the source; they are usually repeats but may differ in a detail not shown here. Equal values may be shown once.

Key:
Format in all cases: in vivo
[1] = test system: cotton aphid (Aphis gossypii [Glover]); test: Foliar leaf-dip test against cotton aphid on tomato plants; conditions: technical, 72 h
Procedure: (§1) Candidate insecticide compositions were evaluated for activity in foliar evaluations against tobacco budworm (Heliothis virescens [Fabricius]), Colorado potato beetle (Leptinotarsa decemlineata [Say]), corn earworm (Helicoverpa zea [Boddie]), cotton aphid (Aphis gossypii [Glover]) and twospotted spider mite (Tetranychus urticae [Koch]). Each test included controls in which the formulation or test solution minus the active ingredients were applied.
In tests against cotton aphid, the leaves of 6 to 8 inch tall tomato plants (Lycopersicon lycoper) were infested with about 50 cotton aphids by placing leaf cuttings from a cotton aphid colony host tomato plant. After about 12 hours the newly infested tomato leaves were dipped into the test solutions of the test formulations to provide application rates as high as 1000 ppm of the active ingredients. The test formulations were dissolved in, and diluted as necessary, with distilled water containing 10% acetone and 0.25% of a non-ionic detergent [an octylphenolpoly(ethyleneglycolether)x, available from Roche Applied Science as Triton X-1001 to the proper concentrations. After treatment, a square of parafilm was placed around the stem of each test plant, covering the soil of each pot in order to catch dead aphids that fall from the leaves. The treated plants were transferred to a hood where they were kept until the leaves had dried. Once dry, the potted plants were placed into a tray containing at least one inch of water. The plants were spaced far enough apart to prevent the aphids from moving between plants. The trays were held in a growth chamber for 72 hours at 25° C., 50% relative humidity and a photoperiod of 14 hours light/10 hours dark. For tests in which the active ingredients were not formulated, i.e. the technical active ingredient was used; a stock solution of the test compound was made. For example, a 100 ppm stock solution may be made by dissolving 4 milligrams of the test compound in 4 mL of acetone and adding the solution to 36 mL of an aqueous Triton X-100 solution (one drop of Triton X-100 dissolved in 100 mL of distilled water). Further dilutions can be made by adding distilled water containing 10% acetone and 0.25% of Triton X-100.
At the end of the 72 hour exposure period the numbers of dead and live insects were counted. Insects were classified as “dead” if they were off-color or brown and desiccated. Using the insect counts, the activity of the test chemical was expressed in percent control. Percent control is derived from the total number of dead insects (TD) compared to the total number of insects (TI) in the test: […]

[2] = test system: corn earworm (Helicoverpa zea [Boddie]); test: Cotton leaf-disc dip test against corn earworm; conditions: technical, 96 h
Procedure: as §1
In tests against corn earworm, one inch diameter leaf discs cut from cotton plant leaves (Gossypium hirsutum) were dipped into the test solutions of the test formulations to provide application rates as high as 1000 ppm of the active ingredients. The test formulations were dissolved in distilled water containing 10% acetone and 0.25% of a non-ionic detergent [an octylphenolpoly(ethyleneglycolether)x, available from Roche Applied Science as Triton X-100] to the proper concentrations. Cotton wicks, 0.5 inch diameter by 2 inches long, were soaked with distilled water and placed into the wells of a 32 well rearing tray (available as Rearing Tray Bio-Fit 32, from C-D International, Pittman, N.J.), one wick per well. Treated leaf discs were placed on top of the cotton wicks, one leaf disc per wick, and the rearing tray was transferred to a hood where they were kept until the leaf discs had dried. Each disc was infested with 1 late second to early third instar corn earworm, replicated sixteen times per rate of application, and a lid was placed on the rearing tray. The rearing trays were held in a growth chamber for 96 hours at 25° C., 50% relative humidity and a photoperiod of 12 hours light/12 hours dark. For tests in which the active ingredients were not formulated, i.e. the technical active ingredient was used; a stock solution of the test compound was made. For example, a 100 ppm stock solution may be made by dissolving 4 milligrams of the test compound in 4 mL of acetone and adding the solution to 36 mL of an aqueous Triton X-100 solution (one drop of Triton X-100 dissolved in 100 mL of distilled water). Further dilutions can be made by adding distilled water containing 10% acetone and 0.25% of Triton X-100.
(§2) At the end of the 96 hour exposure period, the rearing tray was opened, and the numbers of dead and live insects were counted. […] Using the insect counts, the activity of the test chemical was expressed in percent control. Percent control is derived from the total number of dead insects (TD) compared to the total number of insects (TI) in the test: […]

[3] = test system: twospotted spider mite (Tetranychus urticae [Koch]); test: Foliar leaf-dip test against twospotted spider mite on pinto bean plants; conditions: technical, 96 h
Procedure: as §1
In tests against twospotted spider mites, the leaves of potted 3 to 4 inch tall pinto bean plants (Phaseolus vulgaris) were infested with about 50 to 75 adult twospotted spider mites by placing leaf cuttings from a twospotted spider mite colony host pinto bean plant on the upper surface of the test plant leaves. After about 1 hour the newly infested pinto bean leaves were dipped into the test solutions of the test formulations to provide application rates as high as 1000 ppm of the active ingredients. The test formulations were dissolved in, and diluted as necessary, with distilled water containing 10% acetone and 0.25% of a non-ionic detergent [an octylphenolpoly(ethyleneglycolether)x, available from Roche Applied Science as Triton X-100] to the proper concentrations. The treated plants were transferred to a hood where they were kept until the leaves had dried. Once dry, the potted plants were placed into a tray containing at least one inch of water. The plants were spaced far enough apart to prevent the mites from moving between plants. The trays were held in a growth chamber for 96 hours at 25° C., 50% relative humidity and a photoperiod of 14 hours light/10 hours dark. For tests in which the active ingredients were not formulated, i.e. the technical active ingredient was used; a stock solution of the test compound was made. For example, a 100 ppm stock solution may be made by dissolving 4 milligrams of the test compound in 4 mL of acetone and adding the solution to 36 mL of an aqueous Triton X-100 solution (one drop of Triton X-100 dissolved in 100 mL of distilled water). Further dilutions can be made by adding distilled water containing 10% acetone and 0.25% of Triton X-100.
as §2, with “period” for “period, the rearing tray was opened, and”

[4] = test system: Colorado potato beetle (Leptinotarsa decemlineata [Say]); test: Foliar leaf-dip test against adult Colorado potato beetle on tomato plants; conditions: technical, 72 h
Procedure: as §1
In tests against adult Colorado potato beetle, the leaves of 6-8 inch tall tomato plants (Lycopersicon lycoper) were dipped into the test solutions of the test formulations to provide application rates as high as 1000 ppm of the active ingredients. The test formulations were dissolved in distilled water containing 10% acetone and 0.25% of a non-ionic detergent [an octylphenolpoly(ethyleneglycolether)x, available from Roche Applied Science as Triton X-100] to the proper concentrations. The treated plants were transferred to a hood where they were kept until the leaves had dried. For tests in which the active ingredients were not formulated, i.e. the technical active ingredient was used; a stock solution of the test compound was made. For example, a 100 ppm stock solution may be made by dissolving 4 milligrams of the test compound in 4 mL of acetone and adding the solution to 36 mL of an aqueous Triton X-100 solution (one drop of Triton X-100 dissolved in 100 mL of distilled water). Further dilutions can be made by adding distilled water containing 10% acetone and 0.25% of Triton X-100.
The treated tomato plants were removed from their pots by cutting the stems just above the soil line. Each excised plant was placed into an individual 8-ounce paper cup. Ten adult Colorado potato beetles were placed into each paper cup, taking care not to cause injury. An opaque plastic lid was placed on each cup, for a 72 hour exposure period and held at 25° C., 50% relative humidity with a photo-period of 12 hours light and 12 hours dark. At the end of the 72 hour exposure period, the cups were opened, and the numbers of dead and live insects were counted. Using the insect counts, the activity of the test chemical was expressed in percent control. Percent control is derived from the total number of dead insects (TD) compared to the total number of insects (TI) in the test: […]

[5] = cyano-pyrethroid 30.0 ppm alone (bifenthrin 0 ppm)
[6] = cyano-pyrethroid 100.0 ppm alone (bifenthrin 0 ppm)
[7] = cyano-pyrethroid 200.0 ppm alone (bifenthrin 0 ppm)
[8] = cyano-pyrethroid 0.3 ppm alone (bifenthrin 0.0 ppm)
[9] = cyano-pyrethroid 1.0 ppm alone (bifenthrin 0.0 ppm)
[10] = cyano-pyrethroid 3.0 ppm alone (bifenthrin 0.0 ppm)
[11] = cyano-pyrethroid 10.0 ppm alone (bifenthrin 0.0 ppm)
[12] = cyano-pyrethroid 10.0 ppm alone (bifenthrin 0 ppm)
[13] = cyano-pyrethroid 0.3 ppm alone (bifenthrin 0 ppm)
[14] = cyano-pyrethroid 1.0 ppm alone (bifenthrin 0 ppm)
[15] = cyano-pyrethroid 3.0 ppm alone (bifenthrin 0 ppm)
[16] = bifenthrin 1.0 ppm alone (cyano-pyrethroid 0 ppm)
[17] = cyano-pyrethroid 60.0 ppm alone (bifenthrin 0 ppm)

CC1(C)C(C=C(Cl)Cl)C1C(=O)OC(C#N)c1cccc(Oc2ccccc2)c1 (racemic) [alpha-cypermethrin, (S)-α-cyano-3-phenoxybenzyl (1R)-cis-3-(2,2-dichlorovinyl)-2,2-dimethylcyclopropanecarboxylate and (R)-α-cyano-3-phenoxybenzyl (1S)-cis-3-(2,2-dichlorovinyl)-2,2-dimethylcyclopropanecarboxylate]
% Mortality Cotton Aphid [1, 5]: 7% | % Mortality Cotton Aphid [1, 6]: 3% | % Mortality Cotton Aphid [1, 7]: 7% | % Mortality Corn Earworm [2, 8]: 6% | % Mortality Corn Earworm [2, 9]: 63% | % Mortality Corn Earworm [2, 10]: 100% | % Mortality Corn Earworm [2, 11]: 100% | % Mortality Twospotted Spider Mite [3, 12]: 8% | % Mortality Twospotted Spider Mite [3, 5]: 8% | % Mortality Twospotted Spider Mite [3, 6]: 16% | % Mortality Twospotted Spider Mite [3, 7]: 32% | % Mortality Adult Colorado Potato Beetle [4, 13]: 30% | % Mortality Adult Colorado Potato Beetle [4, 14]: 70% | % Mortality Adult Colorado Potato Beetle [4, 15]: 100% | % Mortality Adult Colorado Potato Beetle [4, 12]: 100%

Cc1c(COC(=O)[C@@H]2[C@H](/C=C(\Cl)C(F)(F)F)C2(C)C)cccc1-c1ccccc1 (racemic) [bifenthrin, 2-methylbiphenyl-3-ylmethyl (Z)-(1RS)-cis-3-(2-chloro-3,3,3-trifluoroprop-1-enyl)-2,2-dimethyl cyclopropanecarboxylate]
mortality at 200 ppm ([1]; Aphis gossypii, foliar, bifenthrin 200.0 ppm alone (cyano-pyrethroid 0 ppm)): 100% | mortality at 0.1 ppm ([2]; Helicoverpa zea, bifenthrin 0.1 ppm alone (cyano-pyrethroid 0 ppm)): 6% | mortality at 0.3 ppm ([2]; Helicoverpa zea, bifenthrin 0.3 ppm alone (cyano-pyrethroid 0 ppm)): 13% | % Mortality Corn Earworm ([2]; bifenthrin 0.3 ppm alone (cyano-pyrethroid 0 ppm)): 25% | % Mortality Corn Earworm [2, 16]: 100% and 75% and 63% | mortality at 60 ppm ([3]; Tetranychus urticae, foliar, bifenthrin 60.0 ppm alone (cyano-pyrethroid 0 ppm)): 68% | % Mortality Twospotted Spider Mite ([3]; bifenthrin 30.0 ppm alone (cyano-pyrethroid 0 ppm)): 66% and 100% and 69% | % Mortality Twospotted Spider Mite ([3]; bifenthrin 100.0 ppm alone (cyano-pyrethroid 0 ppm)): 75% and 90% and 100% | mortality at 0.3 ppm ([4]; Leptinotarsa decemlineata, foliar, bifenthrin 0.3 ppm alone (cyano-pyrethroid 0 ppm)): 0% | % Mortality Adult Colorado Potato Beetle [4, 16]: 10%

CC1(C)C(C=C(Cl)Cl)C1C(=O)OC(C#N)c1ccc(F)c(Oc2ccccc2)c1 (racemic) [cyfluthrin, (RS)-α-cyano-4-fluoro-3-phenoxybenzyl (1RS)-cis-trans-3-(2,2-dichlorovinyl)-2,2-dimethylcyclopropanecarboxylate]
% Mortality Cotton Aphid [1, 12]: 4% | % Mortality Cotton Aphid [1, 5]: 6% | % Mortality Cotton Aphid [1, 6]: 9% | % Mortality Corn Earworm [2, 8]: 13% | % Mortality Corn Earworm [2, 9]: 69% | % Mortality Corn Earworm [2, 10]: 100% | % Mortality Corn Earworm [2, 11]: 100% | % Mortality Twospotted Spider Mite [3, 12]: 14% | % Mortality Twospotted Spider Mite [3, 5]: 17% | % Mortality Twospotted Spider Mite [3, 17]: 23% | % Mortality Twospotted Spider Mite [3, 6]: 11% | % Mortality Adult Colorado Potato Beetle [4, 13]: 10% | % Mortality Adult Colorado Potato Beetle [4, 14]: 70% | % Mortality Adult Colorado Potato Beetle [4, 15]: 80% | % Mortality Adult Colorado Potato Beetle [4, 12]: 100%

CC1(C)[C@H](C(=O)O[C@H](C#N)c2cccc(Oc3ccccc3)c2)[C@@H]1/C=C(\Cl)C(F)(F)F (racemic) [lambda-cyhalothrin, (S)-α-cyano-3-phenoxybenzyl-(Z)-(1R)-cis-3-(2-chloro-3,3,3-trifluoropropenyl)-2,2-dimethylcyclopropanecarboxylate and (R)-α-cyano-3-phenoxybenzyl-(Z)-(1S)-cis-3-(2-chloro-3,3,3-trifluoropropenyl)-2,2-dimethylcyclopropanecarboxylate]
% Mortality Cotton Aphid [1, 12]: 11% | % Mortality Cotton Aphid [1, 5]: 11% | % Mortality Cotton Aphid [1, 6]: 10% | % Mortality Corn Earworm [2, 8]: 6% | % Mortality Corn Earworm [2, 9]: 31% | % Mortality Corn Earworm [2, 10]: 56% | % Mortality Corn Earworm [2, 11]: 100% | % Mortality Twospotted Spider Mite [3, 12]: 16% | % Mortality Twospotted Spider Mite [3, 5]: 19% | % Mortality Twospotted Spider Mite [3, 17]: 55% | % Mortality Twospotted Spider Mite [3, 6]: 39% | % Mortality Adult Colorado Potato Beetle [4, 13]: 30% | % Mortality Adult Colorado Potato Beetle [4, 14]: 100% | % Mortality Adult Colorado Potato Beetle [4, 15]: 100% | % Mortality Adult Colorado Potato Beetle [4, 12]: 100%
